Assays:
[1] = test system: all organisms tested in Tables 15-17 with the exception of Serratia marcescens; test: Growth inhibition in MRS medium at various pH levels, organisms of Tables 15-17 except Serratia marcescens; format: cell-based
Procedure: (§1) Efficacy of potassium salts of 9-DA was tested at various pH levels against the following: Serratia marcescens ATCC 990, and Bacillus cereus ATCC 14579.
(§2) Stock cultures of each organism were transferred into MRS liquid medium. MRS medium (Difco 288130) was purchased from Becton, Dickinson and Company, Sparks, Md.
(§3) The efficacy of potassium salts of 9-DA (K-9-DA) was tested at different concentrations and pH levels, including 6.75 (unadjusted), 7.5, and 8.5.
The selected organisms were incubated overnight in 5 ml of MRS medium at 35° C. and 250 rpm. MRS media with K-9-DA were prepared, along with a control of straight media (no antimicrobial added). The antimicrobial agents were added by weight/volume percent to the media. The purity of the composition, 99% for K-9-DA, was taken into account. The pH adjustments to 7.5 and 8.5 were done with 50% potassium hydroxide. Filter sterilization was used instead of autoclaving to prevent adverse chemical reactions at higher pH and temperature. The target for initial cell density was 10^5 to 10^6 cfu/ml. According to the McFarland standard, 0.01 OD600 is equivalent to approximately 10^8 cfu/ml. To achieve the proper dilution, 30 μl of overnight culture diluted to 0.01 OD600 was added to the 3 ml of media in each tube. […] OD600 readings were taken at 0, 19, 25.5, 42.5 and 49 hours. […]

[2] = test system: Pseudomonas straminea; test: Growth inhibition in MRS medium at various pH levels (OD600); format: cell-based; conditions: 0.075% w/v (as 9DA)
[3] = test system: organisms of Table 14 with the exception of Serratia marcescens, Bacillus licheniformis, and Lactobacillus casei; test: Growth inhibition in MRS medium (OD600), organisms of Table 14 except Serratia marcescens, Bacillus licheniformis, Lactobacillus casei; format: cell-based; conditions: all concentrations tested
Procedure: (§4) Efficacy of potassium salts of 9-DA were determined through incubation of the following organisms in the presence of varying concentrations of the potassium salt: Serratia marcescens ATCC 990, Pseudomonas straminea ATCC 33636, Bacillus subtilis ATCC 6051, Bacillus licheniformis ATCC 14580, Bacillus cereus ATCC 14579, Pediococcus acidilactici ATCC 8042, and Lactobacillus casei ATCC 334.
as §2
(§5) The efficacy of different levels of potassium salts of 9-DA (K-9-DA) was tested depending on the organism to inhibit the growth of various microorganisms indicated above.
The selected organisms were incubated overnight in 5 ml of MRS medium at 35° C. and 250 rpm. MRS media with K-9-DA were prepared, along with a control of straight media (no antimicrobial added). The concentrated antimicrobial agents were diluted with the appropriate media required for the respective microorganisms, to reach the required concentrations for the studies as indicated below. The antimicrobial agents were added by weight/volume percent on an ‘as 9-DA’ basis to the media. The purity of the antimicrobial agent (99% for K-9-DA) was taken into account. The pH of the medium was not adjusted. […] OD600 readings were taken at 0, 4, 17, 23 and 47 hours. […]

[4] = Solubility studies in water and isopropanol (GC/FID); format: physicochemical; conditions: mg 9-decenoic acid/g solvent
Procedure: For the antimicrobial agents of Formulae I-III, the solubility in an aqueous and an alcohol environment was studied. Solubility studies were carried out with the sodium (Na) and potassium (K) salts of 9-decenoic acid in water and isopropanol (IPA). Six samples were analyzed. The samples were as follows: Na salt in water, Na salt in IPA, K salt in water, K salt in IPA, 9-decenoic acid (protonated) in water, 9-decenoic acid (protonated) in IPA. For the protonated form of the acids, the samples were acidified and diluted in IPA and subjected to analysis by gas chromatography/flame ionization detector (GC/FID). The same procedure was followed for the Na and K salts in IPA. For the Na and K salts in water, the samples were acidified and then extracted with petroleum ether. The petroleum ether was then evaporated, and the samples were reconstituted in IPA, acidified and subjected to analysis by GC/FID. Concentrations were calculated by comparing the peak area of the sample to a calibration table of 9-decenoic acid. The calibration curve was linear from 1 mg/g to 500 mg/g. Results are reported in mg/g (mg 9-decenoic acid/g solvent).

[5] = test system: Pseudomonas straminea ATCC 33636; test: Growth inhibition in MRS medium (OD600); format: cell-based; conditions: n = 2
Procedure: as §4, §2, §5
(§6) The selected organisms were incubated overnight in 5 ml of MRS medium at 35° C. and 250 rpm. MRS media with K-9-DA were prepared, along with a control of straight media (no antimicrobial added). The concentrated antimicrobial agents were diluted with the appropriate media required for the respective microorganisms, to reach the required concentrations for the studies as indicated below. The antimicrobial agents were added by weight/volume percent on an ‘as 9-DA’ basis to the media. The purity of the antimicrobial agent (99% for K-9-DA) was taken into account. The pH of the medium was not adjusted. The target for initial cell density was 10^5 to 10^6 cfu/ml. According to the McFarland standard, 0.01 OD600 is equivalent to approximately 10^8 cfu/ml. To achieve the proper dilution, 30 μl of overnight culture diluted to 0.01 OD600 was added to the 3 ml of media in each tube. The tubes were incubated at 35° C. Treatments were all done in duplicate. All strains were shaken at 250 rpm, with the exception of Lactobacillus (because it is anaerobic). OD600 readings were taken at 0, 4, 17, 23 and 47 hours.
(§7) “Percent reduction in comparison with control” was defined as (1−abs. of treatment/abs. of control)×100.

[6] = test system: Lactobacillus casei ATCC 334; test: Growth inhibition in MRS medium (OD600); format: cell-based; conditions: n = 2
Procedure: as §4, §2, §5, §6, §7

[7] = test system: Pediococcus acidilactici ATCC 8042; test: Growth inhibition in MRS medium (OD600); format: cell-based; conditions: n = 2
Procedure: as §4, §2, §5, §6, §7

[8] = test system: Bacillus cereus ATCC 14579; test: Growth inhibition in MRS medium (OD600); format: cell-based; conditions: n = 2
Procedure: as §4, §2, §5, §6, §7

[9] = test system: Serratia marcescens ATCC 990; test: Growth inhibition in MRS medium (OD600); format: cell-based; conditions: n = 2
Procedure: as §4, §2, §5, §6, §7

[10] = test system: Bacillus subtilis ATCC 6051; test: Growth inhibition in MRS medium (OD600); format: cell-based; conditions: n = 2
Procedure: as §4, §2, §5, §6, §7

[11] = test system: Bacillus licheniformis ATCC 14580; test: Growth inhibition in MRS medium (OD600); format: cell-based; conditions: n = 2
Procedure: as §4, §2, §5, §6, §7

[12] = test system: Bacillus cereus ATCC 14579; test: Growth inhibition in MRS medium at various pH levels (OD600); format: cell-based; conditions: 0.1% w/v (as 9DA)
Procedure: as §1, §2, §3
(§8) The selected organisms were incubated overnight in 5 ml of MRS medium at 35° C. and 250 rpm. MRS media with K-9-DA were prepared, along with a control of straight media (no antimicrobial added). The antimicrobial agents were added by weight/volume percent to the media. The purity of the composition, 99% for K-9-DA, was taken into account. The pH adjustments to 7.5 and 8.5 were done with 50% potassium hydroxide. Filter sterilization was used instead of autoclaving to prevent adverse chemical reactions at higher pH and temperature. The target for initial cell density was 10^5 to 10^6 cfu/ml. According to the McFarland standard, 0.01 OD600 is equivalent to approximately 10^8 cfu/ml. To achieve the proper dilution, 30 μl of overnight culture diluted to 0.01 OD600 was added to the 3 ml of media in each tube. The tubes were incubated at 35° C. with the exception of Pseudomonas strains which were incubated at 30° C. Treatments were all done in duplicate. All strains were shaken at 250 rpm. OD600 readings were taken at 0, 19, 25.5, 42.5 and 49 hours.
(§9) “Percent reduction in growth vs. control” was defined as (1−abs. of treatment/abs. of control)×100.

[13] = test system: Serratia marcescens ATCC 990; test: as above; format: cell-based; conditions: 0.1% w/v (as 9DA)
Procedure: as §1, §2, §3, §8, §9

C=CCCCCCCCC(=O)O.[K] [Potassium-9 Decenoic Acid]
reduction in growth ([1]; pH 7.5, concentrations of Tables 15-17): 96%
reduction in growth ([1]; pH 8.5, concentrations of Tables 15-17): 94%
% reduction in growth vs. control ([2]; Non-pH adjusted (6.75)): 98.6%
% reduction in growth vs. control ([2]; pH 7.5): 96.2%
% reduction in growth vs. control ([2]; pH 8.5): 93.9%
reduction in growth when compared to controls [3]: ≥ 96%
Solubility, Concentration ([4]; in isopropanol): 10 mg/g
Solubility, Concentration ([4]; in water): 240 mg/g
% reduction in growth vs. control ([5]; 0.05% w/v 9DA from K9DA): 96.9%
Abs at 600 nm ([5]; 0.05% w/v 9DA from K9DA): 0.190
% reduction in growth vs. control ([5]; 0.075% w/v 9DA from K9DA): 97.3%
Abs at 600 nm ([5]; 0.075% w/v 9DA from K9DA): 0.165
% reduction in growth vs. control ([6]; 0.05% w/v 9DA from K9DA): 93.3%
Abs at 600 nm ([6]; 0.05% w/v 9DA from K9DA): 0.461
% reduction in growth vs. control ([6]; 0.075% w/v 9DA from K9DA): 96.9%
Abs at 600 nm ([6]; 0.075% w/v 9DA from K9DA): 0.211
% reduction in growth vs. control ([7]; 0.025% w/v 9DA from K9DA): 100.0%
Abs at 600 nm ([7]; 0.025% w/v 9DA from K9DA): −0.038
% reduction in growth vs. control ([7]; 0.05% w/v 9DA from K9DA): 96.1%
Abs at 600 nm ([7]; 0.05% w/v 9DA from K9DA): 0.224
% reduction in growth vs. control ([8]; 0.075% w/v 9DA from K9DA): 98.4%
Abs at 600 nm ([8]; 0.075% w/v 9DA from K9DA): 0.093
% reduction in growth vs. control ([8]; 0.1% w/v 9DA from K9DA): 96.2%
Abs at 600 nm ([8]; 0.1% w/v 9DA from K9DA): 0.216
% reduction in growth vs. control ([9]; 0.075% w/v 9DA from K9DA): 97.7%
Abs at 600 nm ([9]; 0.075% w/v 9DA from K9DA): 0.181
% reduction in growth vs. control ([9]; 0.1% w/v 9DA from K9DA): 94.6%
Abs at 600 nm ([9]; 0.1% w/v 9DA from K9DA): 0.412
% reduction in growth vs. control ([10]; 0.05% w/v 9DA from K9DA): 97.3%
Abs at 600 nm ([10]; 0.05% w/v 9DA from K9DA): 0.157
% reduction in growth vs. control ([10]; 0.075% w/v 9DA from K9DA): 98.4%
Abs at 600 nm ([10]; 0.075% w/v 9DA from K9DA): 0.094
% reduction in growth vs. control ([11]; 0.075% w/v 9DA from K9DA): 88.6%
Abs at 600 nm ([11]; 0.075% w/v 9DA from K9DA): 0.300
% reduction in growth vs. control ([11]; 0.1% w/v 9DA from K9DA): 99.1%
Abs at 600 nm ([11]; 0.1% w/v 9DA from K9DA): 0.023
% reduction in growth vs. control ([12]; Non-pH adjusted (6.75)): 96.5%
% reduction in growth vs. control ([12]; pH 7.5): 96.2%
% reduction in growth vs. control ([12]; pH 8.5): 93.9%
% reduction in growth vs. control ([13]; Non-pH adjusted (6.75)): 98.5%
% reduction in growth vs. control ([13]; pH 7.5): 18.5%
% reduction in growth vs. control ([13]; pH 8.5): 37.4%

Reference: patent publication US20080033026A1, “Antimicrobial compositions, methods and systems” (priority 2006, published 2008)
